Results on 5 compounds are retold here after patent publication US20090075309A1, “Bisdeoxycoelenterazine derivatives, methods of use, and BRET2 systems” (priority 2007, published 2009).

Read-outs that look alike come from different tables or passages of the source.

The target of this assay is HT1080 cells stably expressing the GFP2-RLuc8 fusion protein (Renilla reniformis, UniProt P27652, A143M/A55T/C124A/K136R/M185V/M253L/S130A/S287L). As to conditions: for intensity of the light signal among the four derivatives: FIG. 3A; for signal half-life (time required for the initial light flux to fall to its half-value): HT1080 GFP2-RLuc8 cells, 60 μM derivatives. As for the experimental part:
The kinetics of the bioluminescent reactions was evaluated by exposing the derivatives to HT1080 cells stably expressing the GFP2-RLuc8 fusion protein and detecting generated light over the course of one hour using cooled charge coupled device camera (FIG. 2).
Human fibrosracoma cell line HT1080 stably expressing GFP2-RLuc8 fusion protein was grown in Dulbecco's modified Eagle high glucose medium (DMEM, Invitrogen, Carlsbad, Calif.) supplemented with 10% fetal bovine serum (FBS), 1% penicillin-streptomycin and 500 μg/mL Zeocin™ (Invitrogen). One day before the luminescence study, 10 000 cells were plated in the 96 well plates (Corning Incorporated, Lowell, Mass.). After the removal of the medium 100 μL of the 5 μM solution of BDC in PBS and 60 μM solution of BDC derivatives in DMSO were added and luminescence measured every five minutes during one hour using an open filter setting. The acquisition time was 10 sec. Images were acquired using a cooled charged-coupled device (CCD) camera IVIS 50 (Caliper Life Sciences, Hopkinton, Mass.) and analyzed using Living Image® software version 2.50.1 (Caliper Life Sciences, Hopkinton, Mass.). Region of interest were drawn, and maximum radiance used as the measure of luminescence. The measurements were done in triplicates.

Sequence of HT1080 cells stably expressing the GFP2-RLuc8 fusion protein (P27652 whole entry A55T/C124A/S130A/K136R/A143M/M185V/M253L/S287L, the tested form may be a part): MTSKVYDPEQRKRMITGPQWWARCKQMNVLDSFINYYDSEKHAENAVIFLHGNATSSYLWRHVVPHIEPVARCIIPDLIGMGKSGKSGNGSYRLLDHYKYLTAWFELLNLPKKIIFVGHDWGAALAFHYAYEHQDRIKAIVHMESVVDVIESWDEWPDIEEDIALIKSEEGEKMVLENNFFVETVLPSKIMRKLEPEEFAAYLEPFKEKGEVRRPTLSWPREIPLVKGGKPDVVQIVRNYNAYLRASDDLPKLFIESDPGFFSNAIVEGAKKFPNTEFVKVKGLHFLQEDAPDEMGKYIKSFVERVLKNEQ

For the compound “acetyl-bisdeoxycoelenterazine [compound 7]”, the “intensity of the light signal among the four derivatives” value is “highest light signal”. The “rate of the bioluminescent reaction / light signal decay (in words)” value (over one hour) is “fast light signal decay, similar to BDC”.
Take `O=c1c(Cc2ccccc2)nc2c(Cc3ccccc3)[nH]c(-c3ccccc3)cn1-2` [BDC, bisdeoxycoelenterazine]: the “signal half-life (time required for the initial light flux to fall to its half-value)” value (“signal half-life” for short) (5 μM BDC) stood at 5 min. For the same compound, the “loss of initial light emission” value (at the 15 minute time point) is recorded as around 75%.
Take `CC(C)(C)OC(=O)Oc1c(Cc2ccccc2)nc2c(Cc3ccccc3)nc(-c3ccccc3)cn12` [compound 8, O-Boc-bisdeoxycoelenterazine]: the “time of peak light emission after exposure to the RLUC8 expressing cells” value was found to be 15 min. Also, the “signal half-life” value (5 μM BDC) is around 50 min. Moreover, where the note is “over one hour”, the “rate of the bioluminescent reaction / light signal decay (in words)” value is given as “remained fairly stable over one hour”.
For “pivaloyloxymethyl-bisdeoxycoelenterazine [compound 10]”, the “intensity of the light signal among the four derivatives” value is listed as “lowest” and the “signal half-life” value was “over one”. Further, the “observable signal 24 hours after exposure to the enzyme” value (24 hours, FIG. 3B) is “the only observable signal 24 hours after exposure to the enzyme came from it”. Also, where the note is “over one hour”, the “light signal as share of the maximum intensity (lowest value reached)” value was at least 88% and the “rate of the bioluminescent reaction / light signal decay (in words)” value is “slower bioluminescent reactions compared to their ester counterparts”. For the setting “over one hour, listed as pivaloyloxymethyl-BDC”, the “rate of the bioluminescent reaction / light signal decay (in words)” value is “slowest bioluminescent reaction”.
Regarding “acetoxymethyl-bisdeoxycoelenterazine [compound 9]”, the “delay of the emergence of the maximum light signal compared to the parent BDC” value was found to be 5 min and the “signal half-life” value is on record as “over one”. Besides, under “over one hour”, the “rate of the bioluminescent reaction / light signal decay (in words)” value is “slower bioluminescent reactions compared to their ester counterparts”. Also, under “over one hour, listed as acetoxymethyl-BDC”, the “rate of the bioluminescent reaction / light signal decay (in words)” value is on record as “slowly decayed with time”.
